# Columns and labels:
# KRAS G12D = target: T1, KRAS G12D (Homo sapiens, UniProt P01116, G12D); assay: KRAS G12D HiBit assay; format: cell-based; details: AsPc-1-KRAS (G12D)-HiBit-KI cell, compound treatment for 24 hours; for DC50: absolute DC50
# T1 construct: AsPc-1-KRAS (G12D)-HiBit-KI cell (Pharmaron); host or cells: AsPc-1-KRAS (G12D)-HiBit-KI cells (HiBiT knock-in at the endogenous KRAS locus)
# Description: Day 1. […] Allowed cells to reach approximately 80% confluence before splitting. Rinsed cultivated cells in T-75 flasks with 5 mL PBS (Solarbio, P1020-500). […] Inactivated trypsin by adding excessive serum containing medium. Harvested the cells from flask into cell culture medium and counted the cell number.
# Day 2. Test compounds were dissolved at 0.3 mM in DMSO (Solarbio, D8371) as stock solution. […] Performed 3-fold, 10-points dilution via transferring 15 μL compound into 30 μL DMSO by using TECAN liquid handler (TECAN, Freedom EVO200).
# Day 3. After compound treatment for 24 hours, removed the plate from incubators and equilibrated at room temperature for 15 minutes. Prepared the HiBit reagent (Promega, N3040) by mixing 10 mL of Nano-Glo®-HiBiT Lytic Buffer with 200 μL of Nano-Glo®-HiBiT Lytic Substrate and 100 μL of LgBiT Protein. Added 20 μL of HiBit reagent into each well of the cell plate and spun the plates at room temperature at 1,000 RPM for 1 minute.
# The inhibition activity was calculated using the following formula:
# (§1) [formula] where HC (high control) is obtained from cells treated with 0.1% DMSO only.
# KRAS G12V = target: T2, KRAS G12V (Homo sapiens, UniProt P01116, G12V); assay: KRAS G12V HiBit assay; format: cell-based; details: SW620-KRAS (G12V)-HiBit-KI cells, compound treatment for 24 hours, class symbols
# T2 construct: SW620-KRAS (G12V)-HiBit-KI cell (Pharmaron); host or cells: SW620-KRAS (G12V)-HiBit-KI cells (HiBiT knock-in at the endogenous KRAS locus)
# T2 sequence (P01116 1-188 isoform P01116-2 G12V): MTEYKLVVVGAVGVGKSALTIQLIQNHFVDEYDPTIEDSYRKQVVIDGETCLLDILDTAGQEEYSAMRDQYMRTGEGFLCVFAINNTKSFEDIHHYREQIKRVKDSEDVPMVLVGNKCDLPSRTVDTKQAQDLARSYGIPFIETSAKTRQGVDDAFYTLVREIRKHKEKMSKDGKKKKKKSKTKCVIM
# Description: Day 1. […] Rinsed cultivated cells in T-75 flasks with 5 mL PBS (Solarbio, P1020-500). […] Inactivated trypsin by adding excessive serum containing medium. Harvested the cells from flask into cell culture medium and counted the cell number.
# Day 2. Test compounds were dissolved at 0.3 mM in DMSO (Solarbio, D8371) as stock solution. […] Performed 3-fold, 10-points dilution via transferring 15 μL compound into 30 μL DMSO by using TECAN liquid handler (TECAN, Freedom EVO200). […] After compound treatment for 24 hours, the plate was removed from incubators and equilibrated at room temperature for 15 minutes. Prepare the HiBit reagent (Promega, N3040) by mixing 10 mL of Nano-Glo®-HiBiT Lytic Buffer with 200 μL of Nano-Glo®-HiBiT Lytic Substrate and 100 μL of LgBiT Protein. Added 20 μL of HiBit reagent into each well of the cell plate and spun the plates at room temperature at 1,000 RPM for 1 minute.
# The degradation activity was calculated using the following formula:
# as §1
# T1 sequence (P01116 1-188 isoform P01116-2 G12D): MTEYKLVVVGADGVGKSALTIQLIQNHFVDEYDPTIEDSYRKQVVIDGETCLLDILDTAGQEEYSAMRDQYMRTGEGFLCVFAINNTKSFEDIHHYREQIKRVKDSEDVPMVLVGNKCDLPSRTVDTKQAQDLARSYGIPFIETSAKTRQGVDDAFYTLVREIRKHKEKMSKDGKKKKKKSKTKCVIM
Structure (SMILES),DC50 (KRAS G12D; class symbols) [nM],DC50 (KRAS G12V) [nM],DC50 (KRAS G12D; numeric bounds given in place of class symbols) [nM],Dmax (KRAS G12D; class symbols) [%]
"C#Cc1c(F)ccc2cccc(-c3ncc4c(N5CCC[C@@](C)(O)C5)nc(OC[C@@]56CCCN5[C@H](COC(=O)N5CC(OCC7CCN(c8ccc9c(c8)n(C)c(=O)n9C8CCC(=O)NC8=O)CC7)C5)CC6)nc4c3F)c12 (stereo partly drawn) [Compound 130, ((3S,7aS)-7a-(((7-(8-Ethynyl-7-fluoronaphthalen-1-yl)-8-fluoro-4-((R)-3-hydroxy-3-methylpiperidin-1-yl)pyrido[4,3-d]pyrimidin-2-yl)oxy)methyl)hexahydro-1H-pyrrolizin-3-yl)methyl 3-((1-(1-(2,6-dioxopiperidin-3-yl)-3-methyl-2-oxo-2,3-dihydro-1H-benzo[d]imidazol-5-yl)piperidin-4-yl)methoxy) azetidine-1-carboxylate]",> 300,> 100,,
C#Cc1c(F)ccc2cccc(-c3ncc4c(N5CCC[C@@](C)(O)C5)nc(OCC5(CN6CCN(C7CCN(c8ccc9c(c8)n(C)c(=O)n9C8CCC(=O)NC8=O)CC7)CC6)CC5)nc4c3F)c12 (stereo partly shown) [Compound 53],> 300,> 100,,
C#Cc1c(F)ccc2cccc(-c3ncc4c(N5CCC[C@@](C)(O)C5)nc(OCC5(CN6CCC7(CC6)CC(N6CCN(c8cccc9c8n(C)c(=O)n9C8CCC(=O)NC8=O)CC6)C7)CC5)nc4c3F)c12 (stereo partly shown) [Compound 70],> 300,> 100,,
"C[C@H]1CN(CCOCCOc2ccc3c(c2)n(C)c(=O)n3C2CCC(=O)NC2=O)CCCN1c1nccc(-c2noc([C@@]3(C)CCCc4sc(N)c(C#N)c43)n2)n1 (stereo partly drawn) [Compound 209, (4S)-2-amino-4-(3-(2-((2S)-4-(2-(2-((1-(2,6-dioxopiperidin-3-yl)-3-methyl-2-oxo-2,3-dihydro-1H-benzo[d]imidazol-5-yl)oxy)ethoxy)ethyl)-2-methyl-1,4-diazepan-1-yl)pyrimidin-4-yl)-1,2,4-oxadiazol-5-yl)-4-methyl-4,5,6,7-tetrahydrobenzo[b]thiophene-3-carbonitrile]",> 300,> 100,,15 to 50
C#Cc1c(F)ccc2cc(O)cc(-c3ncc4c(N5CCC[C@@](C)(O)C5)nc(OCC5(CN6CC7(C6)CN(c6ccc8c(c6)n(C)c(=O)n8C6CCC(=O)NC6=O)C7)CC5)nc4c3F)c12 (stereo partly shown) [Compound 51],< 100,> 100,,
C#Cc1c(F)ccc2cc(O)cc(-c3ncc4c(N5CCC[C@@](C)(O)C5)nc(OCC5(CN6CCC(CN7CCC(c8ccc9c(c8)n(C)c(=O)n9C8CCC(=O)NC8=O)CC7)CC6)CC5)nc4c3F)c12 (stereo partly shown) [Compound 47],< 100,> 100,,
Cn1c(=O)n(C2CCC(=O)NC2=O)c2cccc(C3CCN(CC4CCN(C(=O)CN5CCN(c6nccc(-c7noc([C@@]8(C)CCCc9sc(N)c(C#N)c98)n7)n6)CC5)CC4)CC3)c21 (stereo partly shown) [Compound 222],> 300,> 100,,
C#Cc1c(F)ccc2cc(O)cc(-c3ncc4c(N5CCC[C@@](C)(O)C5)nc(OCC5(CN6CCC(CN7CCN(c8cccc9c8n(C)c(=O)n9C8CCC(=O)NC8=O)CC7)CC6)CC5)nc4c3F)c12 (stereo partly shown) [Compound 72],< 100,< 10,,

# The next lines start with the values.
DC50 (KRAS G12D; class symbols) [nM],DC50 (KRAS G12V) [nM],DC50 (KRAS G12D; numeric bounds given in place of class symbols) [nM],Dmax (KRAS G12D; class symbols) [%],Structure (SMILES)
> 300,> 100,,,C#Cc1c(F)ccc2cc(O)cc(-c3ncc4c(N5CCC[C@@](C)(O)C5)nc(OC[C@@]56CCCN5[C@H](COC(=O)N5CCC(N7CCC(c8ccc9c(c8)n(C)c(=O)n9C8CCC(=O)NC8=O)CC7)CC5)CC6)nc4c3F)c12 (stereo partly shown) [Compound 129]
,> 100,> 100,,"CCc1c(F)ccc2cc(O)cc(-c3ncc4c(N5CCC[C@@](C)(O)C5)nc(OC[C@@]56CCCN5[C@H](COC(=O)N5CCC(Oc7ccc(-c8ccc9c(c8)n(C)c(=O)n9C8CCC(=O)NC8=O)cc7)CC5)CC6)nc4c3F)c12 (stereo partly drawn) [Compound 496, ((3S,7aS)-7a-(((7-(8-ethyl-7-fluoro-3-hydroxynaphthalen-1-yl)-8-fluoro-4-((R)-3-hydroxy-3-methylpiperidin-1-yl)pyrido[4,3-d]pyrimidin-2-yl)oxy)methyl)hexahydro-1H-pyrrolizin-3-yl)methyl 4-(4-(1-(2,6-dioxopiperidin-3-yl)-3-methyl-2-oxo-2,3-dihydro-1H-benzo[d]imidazol-5-yl)phenoxy)piperidine-1-carboxylate]"
< 100,< 10,,,"CCc1c(F)ccc2cc(O)cc(-c3ncc4c(N5CCC[C@@](C)(O)C5)nc(OC[C@@]56CCCN5[C@H](COC(=O)N5CCC(CN7CC8(CCC(c9ccc%10c(c9)n(C)c(=O)n%10C9CCC(=O)NC9=O)CC8)C7)CC5)CC6)nc4c3F)c12 (stereo partly drawn) [Compound 364, ((3S,7aS)-7a-(((7-(8-ethyl-7-fluoro-3-hydroxynaphthalen-1-yl)-8-fluoro-4-((R)-3-hydroxy-3-methylpiperidin-1-yl)pyrido[4,3-d]pyrimidin-2-yl)oxy)methyl)hexahydro-1H-pyrrolizin-3-yl)methyl 4-((7-(1-(2,6-dioxopiperidin-3-yl)-3-methyl-2-oxo-2,3-dihydro-1H-benzo[d]imidazol-5-yl)-2-azaspiro[3.5]nonan-2-yl)methyl)piperidine-1-carboxylate]"
< 100,10 to 100,,,"CCc1c(F)ccc2cc(O)cc(-c3ncc4c(N5CCC[C@@](C)(O)C5)nc(OC[C@@]56CCCN5[C@H](COC(=O)N5CCC(CN7C8CCC7CC(c7ccc9c(c7)n(C)c(=O)n9C7CCC(=O)NC7=O)C8)CC5)CC6)nc4c3F)c12 (stereo partly drawn) [Compound 393, ((3S,7aS)-7a-(((7-(8-ethyl-7-fluoro-3-hydroxynaphthalen-1-yl)-8-fluoro-4-((R)-3-hydroxy-3-methylpiperidin-1-yl)pyrido[4,3-d]pyrimidin-2-yl)oxy)methyl)hexahydro-1H-pyrrolizin-3-yl)methyl 4-((3-(1-(2,6-dioxopiperidin-3-yl)-3-methyl-2-oxo-2,3-dihydro-1H-benzo[d]imidazol-5-yl)-8-azabicyclo[3.2.1]octan-8-yl)methyl)piperidine-1-carboxylate]"
< 100,< 10,,,"CCc1c(F)ccc2cc(O)cc(-c3ncc4c(N5CCC[C@@](C)(O)C5)nc(OC[C@@]56CCCN5[C@H](COC(=O)N5CCC(N7CCC(Oc8ccc9c(c8)n(C)c(=O)n9C8CCC(=O)NC8=O)CC7)CC5)CC6)nc4c3F)c12 (stereo partly drawn) [Compound 439, ((3S,7aS)-7a-(((7-(8-ethyl-7-fluoro-3-hydroxynaphthalen-1-yl)-8-fluoro-4-((R)-3-hydroxy-3-methylpiperidin-1-yl)pyrido[4,3-d]pyrimidin-2-yl)oxy)methyl)hexahydro-1H-pyrrolizin-3-yl)methyl 4-((1-(2,6-dioxopiperidin-3-yl)-3-methyl-2-oxo-2,3-dihydro-1H-benzo[d]imidazol-5-yl)oxy)-[1,4′-bipiperidine]-1′-carboxylate]"
< 100,10 to 100,,,"CCc1c(F)ccc2cc(O)cc(-c3ncc4c(N5CCC[C@@](C)(O)C5)nc(OC[C@@]56CCCN5[C@H](COC(=O)N5CCC(CN7CC(c8ccc9c(c8)n(C)c(=O)n9C8CCC(=O)NC8=O)C7)CC5)CC6)nc4c3F)c12 (stereo partly drawn) [Compound 395, ((3S,7aS)-7a-(((7-(8-ethyl-7-fluoro-3-hydroxynaphthalen-1-yl)-8-fluoro-4-((R)-3-hydroxy-3-methylpiperidin-1-yl)pyrido[4,3-d]pyrimidin-2-yl)oxy)methyl)hexahydro-1H-pyrrolizin-3-yl)methyl 4-((3-(1-(2,6-dioxopiperidin-3-yl)-3-methyl-2-oxo-2,3-dihydro-1H-benzo[d]imidazol-5-yl)azetidin-1-yl)methyl)piperidine-1-carboxylate]"
< 100,10 to 100,,,"CCc1c(F)ccc2cc(O)cc(-c3ncc4c(N5CCC[C@@](C)(O)C5)nc(OC[C@@]56CCCN5[C@H](CNC(=O)c5ccc(CN7CCC(c8ccc9c(c8)n(C)c(=O)n9C8CCC(=O)NC8=O)CC7)cc5F)CC6)nc4c3F)c12 (stereo partly drawn) [Compound 494, 4-((4-(1-(2,6-dioxopiperidin-3-yl)-3-methyl-2-oxo-2,3-dihydro-1H-benzo[d]imidazol-5-yl)piperidin-1-yl)methyl)-N-(((3S,7aS)-7a-(((7-(8-ethyl-7-fluoro-3-hydroxynaphthalen-1-yl)-8-fluoro-4-((R)-3-hydroxy-3-methylpiperidin-1-yl)pyrido[4,3-d]pyrimidin-2-yl)oxy)methyl)hexahydro-1H-pyrrolizin-3-yl)methyl)-2-fluorobenzamide]"
